One assay deals with AkAS. The assay is classed as biochemical. Particulars: 30 °C.
A further assay has as its system T1, SaAS.
T1 construct: pASK-IBA5plus (Strep-tag), E. coli TOP10; source organism not spelt out in this text
Kind of assay: 4-nitrophenolate release at […] nm. Particulars: 30 °C; Bis-Tris propane or SID buffer. Format: biochemical.

SMILES strings stand for the structures. Structures can show the parent of a compound that is named as a salt.

Our source for the Km values is PMC5488252, “Specificity Effects of Amino Acid Substitutions in Promiscuous Hydrolases: Context‐Dependence of Catalytic Residue Contributions to Local Fitness Landscapes in Nearby Sequence Space” (Chembiochem, 2017).

The term Km denotes the concentration of substrate that gives half-maximal velocity. Turning to `O=[N+]([O-])c1ccc(OP(=O)(O)O)cc1` [compound 1, phosphate monoester 1], the Km in the assay with AkAS amounted to 17 mM.
On to `O=[N+]([O-])c1ccc(OS(=O)(=O)O)cc1` [compound 4, sulfate monoester 4], for which the Km with SaAS was determined as 0.24 mM.
